Publication PMC10490226, “Synthesis, Characterization, and Anticancer Activity of New N,N′-Diarylthiourea Derivative against Breast Cancer Cells” (Molecules, 2023)

How the values were obtained:
breast cancer cells = tested on: breast cancer cells; design: method as in doi:10.31788/RJC.2022.1536976; settings: read-out: IC50 concentration against the viability of breast cancer cells; cited from earlier work
MCF-7 cells [1] = test: MTT cytotoxicity test on MCF-7 cells; type: cell-based; settings: Homo sapiens; for IC50: MCF7, 24 h, MTT, 24 h incubation, doses 50 to 1000 µM, mean of three, read-out: IC50 concentration, 50% inhibition of MCF-7 cell viability; for viability at 50 µM / viability at 100 µM / viability at 150 µM / viability at 300 µM / viability at 600 µM / viability at 1000 µM: MCF7, 24 h, read-out: Cell Viability %; for viability at 50 µM: MCF-7, dose 50 µM; for viability at 100 µM: MCF-7, dose 100 µM; for viability at 150 µM: MCF-7, dose 150 µM; for viability at 300 µM: MCF-7, dose 300 µM; for viability at 600 µM: MCF-7, dose 600 µM; for viability at 1000 µM: MCF-7, dose 1000 µM
Experimental: (§1) The human cells that were utilized in the study included breast cancer cells, specifically the MCF-7 cell lines, along with normal lung cells, specifically the WI38 cell lines. These cell lines were taken from the American Type Culture Collection (ATCC). These cells were maintained in RPMI media with penicillin (100 U/mL), glutamine, 10% fetal bovine serum, and streptomycin ([…]) in a humidified incubator (5% CO2, 37 °C).
As indicated before, the prepared compounds (1–6) were tested for their capacity to inhibit the growth of MCF-7 cancer cells, employing the MTT experiment. In short, 1 × 10^5 of MCF-7 cells/mL were seeded into each well of a 96-well plate and cultured in the growth mixture at 37 °C overnight. The MCF-7 cells were then exposed to the test compounds at 37 °C for 24 h at doses that ranged from 50 to 1000 µM.
The cells were then observed under an inverted microscope (Leica DMI3000B, Mannheim, Germany) for toxicity markers in both the control and treated cells. Following this, the cells were subjected to MTT solution, which caused MTT to be converted into formazan (MTT’s metabolic product), the amount of which was directly proportionate to the total number of viable cells. The formazan crystal was then extracted from the cells by treating them with dimethyl sulfoxide. Microplate reader (Bio-Rad, Hercules, CA, USA) readings were taken at 570 nm, and the percentage of live MCF-7 cells was calculated using the following Formula (1) to indicate the influence of the studied compounds on the proliferation of the tested cells. Cell viability % = (Abs. of tested compound − Abs. of blank)/(Abs. of control − Abs. of blank) × 100 (1)
(§2) The half-suppressing dose (IC50) of the tested compounds was estimated via a dose-response curve following incubation for 24 h. To further determine whether the compounds were safe for use on living tissues, the MTT technique was used at concentrations ranging from 50 to 1000 µM to analyze the influence of the compounds on the viability of healthy WI38 cells. Results are presented as the mean of three independent evaluations of each value.

wi38 cells = test: MTT viability test on normal WI38 lung cells; type: cell-based, human
Experimental: as §1, §2

MCF-7 cells [2] = test: DNA fragmentation analysis by comet assay; type: cell-based, human
Experimental: Prior to subjecting the MCF-7 cells to compound 4, they were exposed to a caspase-3 inhibitor (Z-DEVD-FMK) in order to assess the potential involvement of caspase-3 activity in the DNA damage induced by compound 4. The occurrence of DNA damage was assessed in MCF-7 cells treated with compound 4 only (IC50 concentration) and MCF-7 cells that were pretreated with Z-DEVD-FMK (50 μM) for 1 h and then treated with compound 4 (IC50 concentration) for 24 h, utilizing the comet test. Fragmentation causes the broken DNA to be separated from the healthy cellular DNA, generating a comet tail that can be identified under a fluorescence microscope. Comet parameters were calculated using TriTek Comet Score™ software (TriTek Corp., Herndon, VA, USA), following a computerized image analysis system that recorded 100 photographs of randomly shaped comets for each slide. The tail moment and tail DNA, two often-employed markers, were combined for data finding. The Olive tail moment (OTM) has been honed to be the most precise method for assessing DNA damage. In accordance with the following Equation (2), its value can be determined by the tail’s DNA concentration and DNA mobility. OTM = quantity of tail moment × quantity of tail DNA/100(2)

MCF-7 cells [3] = test: Lactate dehydrogenase (LDH) leakage test (ELISA); type: cell-based, human; settings: untreated control 85.35 ± 4.2 U/L, p < 0.001
Experimental: The levels of the released lactate dehydrogenase enzyme (LDH) in compound 4-treated MCF-7 cells were detected using the double-antibody sandwich ELISA technique (SunRed, Cat. N. 201-28-0094) to further estimate the cytotoxic impact of the tested compound 4 against MCF-7 cells. In brief, the compound 4-treated MCF-7 cancer cells were centrifuged, and 40 µL of the resulted supernatant was added to the tested wells. Following this, LDH-antibody (10 µL) and Streptavidin-HRP (50 µL) were transferred to each well for analysis. Subsequently, the 96-well plate was gently shaken, and incubated for 60 min at 37 °C. Following washing, chromogen solution A (50 µL) and chromogen solution B (50 µL) were transferred to each of the test wells, and the plates were left to incubate at 37 Celsius, out of the light, for 10 min. Next, each well was treated with stop solution (50 µL). Finally, the optical density, OD, for the tested plate was measured at 450 nm. Using the prepared standard curve, the concentration of the released LDH was estimated.

[4] = tested on: cleaved caspase-3 (activated caspase-3); test: ELISA quantification of active (cleaved) caspase-3 in MCF-7 cells; type: cell-based, human; settings: MCF-7, IC50 dose (338.33 µM), p < 0.001, result in words
Experimental: The expression levels of the human active caspase-3 protein when cleaved at Asp175/Ser176 were measured in compound 4-treated MCF-7 cells, using an ELISA method (Invitrogen, Waltham, MA, USA, Catalog # KHO1091). In a nutshell, after incubating the tested compound 4 with MCF-7 cell cultures for 2 h, the supernatant (100 μL) was plated into a 96-well ELISA plate, and the resulting pellets were discarded. Each well was then suspended with 100 μL of a caspase-3 (active) antibody detection solution and left to incubate at room temperature for 1 h. The solution was then decanted from the wells and rinsed four times. Furthermore, HRP-Anti-Rabbit Antibody solution (100 µL) was added to each well, and the plate was incubated for 30 min at room temperature. A stabilized chromogen substrate (100 µL) was transferred to each well, and the plate was allowed to incubate for 30 min at room temperature, in darkness. At 450 nm, optical density readings were taken from the tested plate after adding 100 µL of stop solution to each well. Utilizing a standard curve, the quantity of active caspase-3 protein in the treated MCF-7 cells was calculated.

[5] = IC50 concentration 24 h, with caspase-3 inhibitor Z-DEVD-FMK (50 μM, 1 h) pretreatment

SMILES | IC50 (breast cancer cells) | IC50 (MCF-7 cells [1]) | viability at 50 µM (MCF-7 cells [1]) | viability at 100 µM (MCF-7 cells [1]) | viability at 150 µM (MCF-7 cells [1]) | viability at 300 µM (MCF-7 cells [1]) | viability at 600 µM (MCF-7 cells [1]) | viability at 1000 µM (MCF-7 cells [1]) | IC50 (wi38 cells; Homo sapiens, WI-38, doses 50 to 1000 µM) | Cytotoxic effects on normal human lung cells (wi38 cells) (wi38 cells; result in words) | % DNA in Tail (MCF-7 cells [2]; [5]) | Olive Tail Moment (OTM) (MCF-7 cells [2]; [5]) | Tail Length (PX) (MCF-7 cells [2]; [5]) | Tail Moment (MCF-7 cells [2]; [5]) | Tail Moment (MCF-7 cells [2]; IC50 concentration, without caspase-3 inhibitor pretreatment, control 0.22 ± 0.02) | Olive Tail Moment (OTM) (MCF-7 cells [2]; IC50 concentration, without caspase-3 inhibitor pretreatment, control 0.55 ± 0.02) | % DNA in Tail (MCF-7 cells [2]; IC50 concentration, without caspase-3 inhibitor pretreatment, control 3.11 ± 1.73) | Tail Length (PX) (MCF-7 cells [2]; IC50 concentration, without caspase-3 inhibitor pretreatment, control 7.52 ± 1.82) | LDH levels in treated MCF-7 cells (MCF-7 cells [3]) | Cleaved caspase-3 (activated caspase-3) levels versus untreated cells [4]
C=CCNC(=S)NC(=O)c1ccc([N+](=O)[O-])cc1 [4-nitrobenzoyl-3-allylthiourea] | 225 µM |  |  |  |  |  |  |  |  |  |  |  |  |  |  |  |  |  |  | 
CCCCCCOc1ccc(NC(=O)Nc2ccccc2)cc1 [Compound 1, 1-(4-(hexyloxy)phenyl)-3-phenylurea] |  | 726.6 ± 1.29 µM | 98.6 ± 2.21% | 87.3 ± 1.34% | 80.6 ± 2.76% | 67.2 ± 1.13% | 57.2 ± 2.44% | 36.4 ± 1.34% |  |  |  |  |  |  |  |  |  |  |  | 
CCCCCCCCOc1ccc(NC(=O)Nc2ccccc2)cc1 [Compound 2, 1-(4-(octyloxy)phenyl)-3-phenylurea] |  | 527.2 ± 1.28 µM | 98.8 ± 2.26% | 88.6 ± 2.22% | 72.2 ± 2.13% | 49.9 ± 1.77% | 38.3 ± 1.97% | 23.3 ± 2.33% |  |  |  |  |  |  |  |  |  |  |  | 
CCCCCCCCCCCCCCCCOc1ccc(NC(=O)Nc2ccccc2)cc1 [Compound 3, 1-(4-(hexadecyloxy)phenyl)-3-phenylurea] |  | 619.7 ± 4.33 µM | 97.3 ± 2.45% | 93.6 ± 1.82% | 80.7 ± 2.44% | 64.9 ± 1.66% | 56.7 ± 2.55% | 20.9 ± 2.75% |  |  |  |  |  |  |  |  |  |  |  | 
CCCCCCOc1ccc(NC(=S)Nc2ccc(F)cc2)cc1 [Compound 4, 1-(4-fluorophenyl)-3-(4-(hexyloxy)phenyl)thiourea] |  | 338.3 ± 1.52 µM | 100 ± 2.24% | 90.2 ± 2.78% | 48.1 ± 1.15% | 21.2 ± 1.66% | 18.3 ± 1.92% | 7.28 ± 2.56% | 1.463 ± 0.00478 mM | no cytotoxic effects | 14.37 ± 1.33 % | 1.87 ± 0.34 | 7.13 ± 2.21 PX | 1.04 ± 0.04 | 1.72 ± 0.05 | 2.38 ± 0.06 | 17.26 ± 2.34 % | 6.67 ± 1.94 PX | 521.77 ± 30.8 U/L | significantly elevated
CCCCCCCCOc1ccc(NC(=S)Nc2ccc(F)cc2)cc1 [Compound 5, 1-(4-fluorophenyl)-3-(4-(octyloxy)phenyl)thiourea] |  | 567.8 ± 4.28 µM | 98.6 ± 2.53% | 96.5 ± 2.33% | 79.5 ± 1.92% | 62 ± 1.84% | 45.4 ± 2.74% | 18 ± 1.45% |  |  |  |  |  |  |  |  |  |  |  | 
CCCCCCCCCCCCCCCCOc1ccc(NC(=S)Nc2ccc(F)cc2)cc1 [Compound 6, 1-(4-fluorophenyl)-3-(4-(hexadecyloxy)phenyl)thiourea] |  | 711.9 ± 2.5 µM | 96.4 ± 2.63% | 91.7 ± 2.47% | 84.1 ± 1.83% | 79.2 ± 2.64% | 46.9 ± 2.34% | 36.7 ± 1.66% |  |  |  |  |  |  |  |  |  |  |  | 
